Data taken from US11993594B2, “IRAK inhibitors and method for making and using” (Rigel Pharmaceuticals, Inc., priority 2016, dated 2024).
Counter-ions that a name gives are not always drawn. Like-named read-outs stand apart in the source and are kept apart here.

Tests used:
[1] = system: LPS induced IL-23 (p19/p40) in DC cells; assay: IL23-p19 ELISA, dendritic (DC) cells differentiated from human PBMC, LPS stimulated; assay type: cell-based; details: LPS 1 μg/ml, 18 hours, 10 pt
Method: Compound Screening Using DC Cells
Human PBMC cells (400 million) obtained from the vendor were transferred into a T-175 flask containing 15 ml RPMI media (10% FBS) and incubate for 2 hours at 37° C. After 2 hours, the media including floating cells was aspirated out carefully and 12 ml of fresh RPMI media (10% FBS) containing GMCSF (100 ng/ml) and IL4 (20 ng/ml) was added, and the flask was kept in a 37° C. incubator for 7 days.
After 3 days, fresh GMCSF (100 ng/ml) and IL4 (20 ng/ml) were added to the flask and the incubation continued. After 7 days, the fully differentiated cells were harvested by spinning down (1200 rpm/5 min) and aspirating the media. The cells were suspended in fresh RPMI media (10% FBS) containing 50 ng/ml IFNγ (1000 U/ml) and then plated (50K/well in 100 μl) onto a white clear bottom 96 well plate and left in a 37° C. incubator for 24 hours.
After 24 hours incubation, 100 μl of RPMI media was added containing 2× concentrated test compound per well to the above cell-culture media (final concentration becomes 1×) and the plates were pre-incubated for 1 hour at 37° C. before stimulating with LPS.
After 1 hour compound pre-incubation, 10 μl per well of 20× concentrated LPS solution in RPMI media was added to give a final concentration of 1 μg/ml. The mixture was shaken and incubated the plates at 37° C. for an additional 18 hours.
155 μl of the supernatant was harvested from each well carefully (without the tip touching the bottom of the well) and to the remaining 50 μl/well of the cell culture plate was added 50 μl of Cell Titer Glo reagent. The mixture was incubated for 1-2 minutes on a shaker and the plate was read for luminescence intensity to determine the compound cytotoxicity. The cell culture supernatant collected above was used to carry out IL23 ELISA (65 μl—Supernatant) and IL10 ELISA (90 μl—Supernatant) as described below.
Human IL-23 (p19/p40) ELISA Protocol (e-Biosciences)
To 10.5 ml PBS add 50 μl of anti-IL23 (p19) was added capture antibody (2.5 μg/ml). The mixture was mixed well and 100 μl of the coating solution was added to each well of the 96 well white plates from Pierce. The wells were covered and incubated overnight at 4° C.
The anti-IL23 (p19)-antibody-coated plates were washed 2× using TBST (use plate washer) and blocked using 200 μl of 0.5% Casein for 1.5 to 2 hours at room temperature with shaking.
The plates were washed 2× using TBST and the supernatant was transferred (65 μl/well) to the above pre-blocked/IL23(p19)-antibody-coated 96 well plate, and incubated at room temperature for 1.5 hours with shaking.
The plates were washed 4× using TBST (plate washer) and 100 μl/well detection antibody solution prepared from 2 μl of biotin labeled anti-IL-12 (p40/p70) antibody in 11 ml 1% BSA/PBS solution (1-5000 dilution) was added. The plates were incubated for 1 hour with shaking at Room temperature.
Again, the plates were washed 4× with TBST and 100 μl of HRP labeled Streptavidin (R&D Systems) solution (10 μl/10 ml 1% BSA solution) was added, and the plates were incubated at room temperature for another 45 minutes with shaking.
After 45 minutes, the plates were washed with TBST 4× and 100 μl/well Super Signal ELISA Pico Chemiluminescent Substrate from Pierce (3.5 ml A+3.5 ml B+3.5 ml MQ water) was added. The plates were shaken for 1-2 minutes then read on a plate reader. […]

[2] = system: LPS Induced IL23p19 in THP-1 Cells; assay: LPS Induced IL23p19 in THP-1 Cells (with IFNγ Primed) Assay; assay type: cell-based, human; details: THP-1 cells primed with IFNγ 50 ng/mL, LPS 1 ug/mL, 18 hours, 10 pt, read-out: IL23-p19 ELISA, THP1-IFNγ, LPS, 10 pt EC50
Outline: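 THP-1 cells (50K/well) are primed with IFNγ at 50 ng/mL for about 18 h. They are then pre-treated with compound for 1 h and stimulated with LPS at 1 ug/mL final for 18 h at 37 °C. Secreted IL-23p19 is measured by chemiluminescent sandwich ELISA and EC50 is derived by curve fitting, with Cell Titer Glo as a viability counter-screen.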

Row | Compound | EC50 ([1]; Table 1, IFNγ 50 ng/ml) | EC50 ([2]; Homo sapiens, Table 1) | other results
1 | CCO[C@H]1CC[C@H](n2cc(NC(=O)c3coc(-c4cn[nH]c4)n3)c(-c3cc(F)cc(F)n3)n2)CC1 [Compound I-29, N-(3-(4,6-difluoropyridin-2-yl)-1-((1r,4r)-4-ethoxycyclohexyl)-1H-pyrazol-4-yl)-2-(1H-pyrazol-4-yl)oxazole-4-carboxamide] | 207 nM | 976 nM | –
2 | O=C(Nc1cn(C2CCC(N3CCOCC3)CC2)nc1-c1cnccn1)c1coc(-c2cn[nH]c2)n1 (centres unmarked) [Compound I-30, N-(1-((1r,4r)-4-morpholinocyclohexyl)-3-(pyrazin-2-yl)-1H-pyrazol-4-yl)-2-(1H-pyrazol-4-yl)oxazole-4-carboxamide] | 6.5 nM | 2.8 nM | –
3 | CCO[C@H]1CC[C@H](n2cc(NC(=O)c3coc(-c4cn[nH]c4)n3)c(-c3nc(C(F)(F)F)ccc3F)n2)CC1 [Compound I-31, N-(1-((1r,4r)-4-ethoxycyclohexyl)-3-(3-fluoro-6-(trifluoromethyl)pyridin-2-yl)-1H-pyrazol-4-yl)-2-(1H-pyrazol-4-yl)oxazole-4-carboxamide] | 973 nM | 688 nM | –
4 | CCO[C@H]1CC[C@H](n2cc(NC(=O)c3coc(-c4cn[nH]c4F)n3)c(-c3cnccn3)n2)CC1 [Compound I-32, N-(1-((1r,4r)-4-ethoxycyclohexyl)-3-(pyrazin-2-yl)-1H-pyrazol-4-yl)-2-(5-fluoro-1H-pyrazol-4-yl)oxazole-4-carboxamide] | 417 nM | – | EC50 ([1]; Table 2, IFNγ 50 ng/ml): 417 nM; EC50 ([2]; Table 1): 204 nM; EC50 ([2]; Table 2): 204 nM
5 | O=C(Nc1cn([C@H]2C[C@H](N3CCOCC3)C2)nc1-c1cnccn1)c1coc(-c2cn[nH]c2)n1 [Compound I-33, N-(1-((1r,3r)-3-morpholinocyclobutyl)-3-(pyrazin-2-yl)-1H-pyrazol-4-yl)-2-(1H-pyrazol-4-yl)oxazole-4-carboxamide] | 23.4 nM | 59.1 nM | –
6 | O=C(Nc1cn([C@H]2C[C@@H](N3CCOCC3)C2)nc1-c1cnccn1)c1coc(-c2cn[nH]c2)n1 [Compound I-34, N-(1-((1s,3s)-3-morpholinocyclobutyl)-3-(pyrazin-2-yl)-1H-pyrazol-4-yl)-2-(1H-pyrazol-4-yl)oxazole-4-carboxamide] | 18.8 nM | 7.8 nM | –
7 | O=C(Nc1cn(C2CCC(N3CCOCC3)CC2)nc1-c1cnccn1)c1coc(-c2c[nH]nc2F)n1 (centres unmarked) [Compound I-35, 2-(3-fluoro-1H-pyrazol-4-yl)-N-(1-((1r,4r)-4-morpholinocyclohexyl)-3-(pyrazin-2-yl)-1H-pyrazol-4-yl)oxazole-4-carboxamide formic acid salt] | 46.5 nM | 78 nM | –
8 | O=C(Nc1cn([C@H]2C[C@@H](O)C2)nc1-c1cnccn1)c1coc(-c2cn[nH]c2)n1 [Compound I-38, N-(1-((1s,3s)-3-hydroxycyclobutyl)-3-(pyrazin-2-yl)-1H-pyrazol-4-yl)-2-(1H-pyrazol-4-yl)oxazole-4-carboxamide] | 39.9 nM | 2.6 nM | –
9 | N-(1-(2-(2-methoxyethoxy)ethyl)-3-(pyridin-2-yl)-1H-pyrazol-4-yl)-2-(1H-pyrazol-4-yl)oxazole-4-carboxamide [Compound I-24] | – | – | EC50 ([1]; Table 3, IFNγ 50 ng/ml): 217 nM; EC50 ([2]; Table 3): 238 nM
